Test results from PubChem BioAssay AID1918991 (Molecular Pharmacology Branch, DTP, NCI, 2023).
pIC50: −log10 of the molar value.

System: 186277-243-T-J2-PDC complex spheroid growth
Test: Anticancer human tumor 186277-243-T-J2-PDC patient-derived colon adenocarcinoma cell line growth inhibition [AhR]
Settings: for pIC50: curve of first compound; for viability, T/C: stronger effect = lower value
Text: Multicellular complex tumor spheroid response to aryl hydrocarbon receptor antagonists in combination with a variety of drugs and investigational agents in selected tumor cell lines
The current study was undertaken to assess response to aryl hydrocarbon receptor antagonists in combination with standard-of-care drugs and investigational agents in solid tumor complex spheroid models. Complex spheroids include a stromal component modeled by human endothelial cells (HUVEC) and fibroblasts modeled by human mesenchymal stem cells (MSCs). The concentration ranges selected for each drug and investigational agent were based upon clinically achievable concentrations if the clinical Cmax of the agent was known.
Compounds. The drugs and investigational agents: BAY 2416964 (NSC825713), GNF351 (NSC835774), CH-223191 (NSC835775), CPI-455 (NSC825282), aza-TdCyd (NSC777586), decitabine (NSC127716), belinostat (NSC758774), entinostat (NSC756642), pevonedistat (NSC761192), tazemetostat (NSC777109), talazoparib (NSC765396), olaparib (NSC753686), selinexor (NSC780203), nedisertib (M3814, NSC802822), bortezomib (NSC756655), venetoclax (NSC766270), doxorubicin (NSC123127), elimusertib (BAY189344, NSC800525), ceralasertib (AZD6738, NSC777638), TAK-243 (NSC785004), alisertib (NSC759677), etoposide (NSC141540), topotecan (NSC609699), eribulin (NSC707389), gemcitabine (NSC613327), carboplatin (NSC241240), cisplatin (NSC119875), and SN-38 (NSC673596) were obtained from the National Cancer Institute (NCI) Developmental Therapeutics Program Chemical Repository (32). The FDA-approved anticancer drug set is available from the Developmental Therapeutics Program at https://dtp.cancer.gov/organization/dscb/obtaining/available plates.htm. […] The stock solutions were prepared in dimethyl sulfoxide (DMSO, Sigma-Aldrich, St. Louis, MO, cat. D2650), except for the platinum compounds which were prepared in saline (Quality Biological, Gaithersburg, MD, cat. 114-055-101), at 800-fold the tested concentration and stored at -70 degrees C prior to their use. All drugs and investigational agents were tested over a range starting from a high concentration at or near the clinical Cmax and decreasing in half-log increments. If the clinical Cmax for an agent had not been determined, the highest concentration tested was 10 microM (Table 1).
Cell Culture. All cells were maintained in an incubator at 37 degrees C and 5% CO2 with 95% humidity. The PDC lines were cultured according to standard operating procedures established by the NCI PDMR (https://pdmr.cancer.gov). Briefly, all PDCs were thawed and cultured in Matrigel-coated flasks prepared with a working solution of 1X Ham's F-12 nutrient mix, without supplementation (Invitrogen, Waltham, MA, cat. 11765054), 100 U/mL penicillin-streptomycin (Invitrogen, cat. 15140122), and 2.5% Matrigel (Corning Inc., Corning, NY, cat. 354248) for the first three passages. All PDCs were cultured in complete DMEM/F-12 media containing advanced DMEM/F-12 (Invitrogen, cat. 12634028), 4.9% defined fetal bovine serum, heat inactivated (HyClone Laboratories Inc., Logan, UT, cat. SH30070.03HI), 389 ng/mL hydrocortisone (Sigma-Aldrich, cat. H4001), 9.7 ng/mL human EGF recombinant protein (Invitrogen, cat. PHG0313), 23.4 microg/mL adenine (Sigma-Aldrich, cat. A2786), 97.3 U/mL penicillin-streptomycin (Invitrogen, cat. 15140122), 1.9 mM L-glutamine (Invitrogen, cat. 25030081), and 9.7 microM Y-27632 dihydrochloride (Tocris Bioscience, Bristol, United Kingdom, cat. 1254). The PDCs were cultured in complete DMEM/F12 media without 10 microM Y-27632 dihydrochloride for at least two passages prior to the screen. The established cell lines NCI-H1341 and […] were cultured in DMEM/F-12, HEPES (Invitrogen, cat. 11330032), 5% defined fetal bovine serum (HyClone Laboratories Inc., cat. SH30070.03), ITS premix universal culture supplement [insulin (5 microg/mL), transferrin (5 microg/mL), and selenious acid (5 ng/mL)] […]

[1] = second compound 0.1 µM, first compound 0.0316 µM
[2] = second compound 0.1 µM, first compound 0.1 µM
[3] = second compound 0.316 µM, first compound 0.0316 µM
[4] = second compound 0.316 µM, first compound 0.1 µM
[5] = second compound 1 µM, first compound 0.0316 µM
[6] = second compound 1 µM, first compound 0.1 µM
[7] = second compound 3.16 µM, first compound 0.0316 µM
[8] = second compound 3.16 µM, first compound 0.1 µM
[9] = second compound 10 µM, first compound 0.0316 µM
[10] = second compound 10 µM, first compound 0.1 µM
[11] = second compound 0.1 µM, first compound 0.316 µM
[12] = second compound 0.1 µM, first compound 1 µM
[13] = second compound 0.1 µM, first compound 3.16 µM
[14] = second compound 0.1 µM, first compound 10 µM
[15] = second compound 0.316 µM, first compound 0.316 µM
[16] = second compound 0.316 µM, first compound 1 µM
[17] = second compound 0.316 µM, first compound 3.16 µM
[18] = second compound 0.316 µM, first compound 10 µM
[19] = second compound 1 µM, first compound 0.316 µM
[20] = second compound 1 µM, first compound 1 µM
[21] = second compound 1 µM, first compound 3.16 µM
[22] = second compound 1 µM, first compound 10 µM
[23] = second compound 3.16 µM, first compound 0.316 µM
[24] = second compound 3.16 µM, first compound 1 µM
[25] = second compound 3.16 µM, first compound 3.16 µM
[26] = second compound 3.16 µM, first compound 10 µM
[27] = second compound 10 µM, first compound 0.316 µM
[28] = second compound 10 µM, first compound 1 µM
[29] = second compound 10 µM, first compound 3.16 µM
[30] = second compound 10 µM, first compound 10 µM
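Further: spheroids exposed to compounds for seven days before the viability read.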
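Wherever viability, T/C is given: luminescent signal used as a stand-in for viable cell amount; 100% = DMSO vehicle control wells.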

| SMILES | pIC50 (second compound 0.1 µM) | pIC50 (second compound 0.316 µM) | pIC50 (second compound 1 µM) | pIC50 (second compound 3.16 µM) | pIC50 (second compound 10 µM) | viability, T/C [1] | viability, T/C [2] | viability, T/C [3] | viability, T/C [4] | viability, T/C [5] | viability, T/C [6] | viability, T/C [7] | viability, T/C [8] | viability, T/C [9] | viability, T/C [10] | viability, T/C [11] | viability, T/C [12] | viability, T/C [13] | viability, T/C [14] | viability, T/C [15] | other results |
| --- | --- | --- | --- | --- | --- | --- | --- | --- | --- | --- | --- | --- | --- | --- | --- | --- | --- | --- | --- | --- | --- |
| CC[C@@]1(O)C(=O)OCc2c1cc1n(c2=O)Cc2cc3c(CN(C)C)c(O)ccc3nc2-1 + CC(CO)NC(=O)c1cc(-c2ccc(Cl)cc2)nn(-c2cnn(C)c2)c1=O | 7.85 | 7.84 | 7.82 | 7.95 | 7.90 | 32.2% | 21.5% | 30.1% | 22.2% | 27.6% | 22% | 24.7% | 22.7% | 26.5% | 24.1% |  |  |  |  |  | viability, T/C (second compound 0.1 µM, first compound 0.000316 µM): 101%; viability, T/C (second compound 0.1 µM, first compound 0.001 µM): 101%; viability, T/C (second compound 0.1 µM, first compound 0.00316 µM): 89.5%; viability, T/C (second compound 0.1 µM, first compound 0.01 µM): 57.3%; viability, T/C (second compound 0.316 µM, first compound 0.000316 µM): 96.5%; viability, T/C (second compound 0.316 µM, first compound 0.001 µM): 102%; viability, T/C (second compound 0.316 µM, first compound 0.00316 µM): 93.5%; viability, T/C (second compound 0.316 µM, first compound 0.01 µM): 59.6%; viability, T/C (second compound 1 µM, first compound 0.000316 µM): 90.4%; viability, T/C (second compound 1 µM, first compound 0.001 µM): 102%; viability, T/C (second compound 1 µM, first compound 0.00316 µM): 91%; viability, T/C (second compound 1 µM, first compound 0.01 µM): 62.2%; viability, T/C (second compound 3.16 µM, first compound 0.000316 µM): 88.3%; viability, T/C (second compound 3.16 µM, first compound 0.001 µM): 102%; viability, T/C (second compound 3.16 µM, first compound 0.00316 µM): 77.1%; viability, T/C (second compound 3.16 µM, first compound 0.01 µM): 55.5%; viability, T/C (second compound 10 µM, first compound 0.000316 µM): 75%; viability, T/C (second compound 10 µM, first compound 0.001 µM): 75.4%; viability, T/C (second compound 10 µM, first compound 0.00316 µM): 78.3%; viability, T/C (second compound 10 µM, first compound 0.01 µM): 56.2% |
| COc1cc(C2c3cc4c(cc3C(OC3OC5COC(C)OC5C(O)C3O)C3COC(=O)C23)OCO4)cc(OC)c1O (stereo not given) + CC(CO)NC(=O)c1cc(-c2ccc(Cl)cc2)nn(-c2cnn(C)c2)c1=O | 6.55 | 6.55 | 6.59 | 6.71 | 7.09 | 102% | 83.9% | 92.8% | 90.6% | 89.2% | 80.2% | 84.5% | 71.6% | 68.3% | 47.4% | 45.4% | 20.3% | 15.5% | 8.93% | 45% | viability, T/C [16]: 17.8%; viability, T/C [17]: 17.6%; viability, T/C [18]: 8.41%; viability, T/C [19]: 42.6%; viability, T/C [20]: 20.7%; viability, T/C [21]: 16.4%; viability, T/C [22]: 8.47%; viability, T/C [23]: 33.7%; viability, T/C [24]: 20.2%; viability, T/C [25]: 14.5%; viability, T/C [26]: 7.04%; viability, T/C [27]: 25.2%; viability, T/C [28]: 19.2%; viability, T/C [29]: 10.4%; viability, T/C [30]: 6.47% |
| Nc1ccn(C2OC(CO)C(O)C2(F)F)c(=O)n1 (stereo not given) + CC(CO)NC(=O)c1cc(-c2ccc(Cl)cc2)nn(-c2cnn(C)c2)c1=O | > 7.50 | > 7.50 | > 7.50 | > 7.50 | > 7.50 | 5.01% | 4.63% | 4.41% | 4.36% | 5.04% | 4.97% | 5.3% | 4.96% | 5.62% | 5.79% | 4.51% | 3.71% | 4.16% | 4.38% | 4.44% | viability, T/C [16]: 4.03%; viability, T/C [17]: 4.3%; viability, T/C [18]: 4.3%; viability, T/C [19]: 4.99%; viability, T/C [20]: 4.1%; viability, T/C [21]: 5.44%; viability, T/C [22]: 4.54%; viability, T/C [23]: 5.78%; viability, T/C [24]: 5.41%; viability, T/C [25]: 5.04%; viability, T/C [26]: 4.36%; viability, T/C [27]: 5.42%; viability, T/C [28]: 5.48%; viability, T/C [29]: 5.6%; viability, T/C [30]: 4.96% |
